In ChEMBL document CHEMBL1130952, “NMR and topochemical studies of peptidomimetic HIV-I protease inhibitors containing a cis-epoxide amide isostere” (Bioorg Med Chem Lett, 1998):

Legend:
[1] = molecular target: Human immunodeficiency virus type 1 protease (Human immunodeficiency virus 1) (UniProt Q72874); assay: Second order rate constant was determined for the irreversible inhibition of HIV-1 protease; value ranges from 10e8- 10e10
[2] = molecular target: Human immunodeficiency virus type 1 protease (Human immunodeficiency virus 1, UniProt Q72874); assay: Compound was tested for 50% irreversible inhibition of HIV-1 protease; value ranges from 10-50

CONC(=O)[C@H](NC(=O)C[C@@H]1O[C@@H]1[C@H](Cc1ccccc1)NC(=O)[C@H](CC(N)=O)NC(=O)c1ccc2ccccc2n1)C(C)C
K inact/Ki [1]: 1.67e+06 M⁻¹ s⁻¹ | IC50 [2]: 10 nM

CC(C)[C@H](Cc1ccccc1)NC(=O)C[C@@H]1O[C@@H]1[C@H](Cc1ccccc1)NC(=O)[C@H](CC(N)=O)NC(=O)c1ccc2ccccc2n1
K inact/Ki [1]: 1.67e+06 M⁻¹ s⁻¹ | IC50 [2]: 10 nM

CC(C)[C@@H](NC(=O)C[C@@H]1O[C@@H]1[C@H](Cc1ccccc1)NC(=O)[C@H](CC(N)=O)NC(=O)c1ccc2ccccc2n1)c1ccccc1
K inact/Ki [1]: 1.67e+06 M⁻¹ s⁻¹ | IC50 [2]: 10 nM
